Laboratory results published in patent US20230102192A1, “THERAPIES FOR THE TREATMENT OF DISEASES AND DISORDERS ASSOCIATED WITH ABNORMAL EXPRESSION OF A NEURAL-ASSOCIATED GENE” (The Regents of the University of California, priority 2020, published 2023).
Entries after “also recorded” stand apart in the source; their conditions may differ.

Columns and labels:
Type in all cases: cell-based, human
[1] = system: MECP2-KO neurons; assay: Neuronal morphology (neurites, spine density); settings: vs KO untreated
[2] = system: control neurons; assay: Effect of treatment on control neurons
Protocol: Pharmacologic treatment. One-month old cortical organoids were treated for 1 mo with either Nefiracetam (10 μM) or PHA 543613 (10 μM) during media changes.
Pharmacologic screening identifies two compounds that specifically reverse MECP2-KO phenotypes. 14 commercially available pharmacologic compounds with mechanisms of action that counteract the synapse and neurotransmitter pathologies were selected and which are identified in FIG. 5B. […] MECP2-KO and control neurons were treated with each of the 14 compounds and employed a tiered series of assays to identify those that could selectively rescue MECP2-KO pathology without affecting controls. […] The capacity of these compounds to increase pre and post co-localized synaptic puncta in MECP2-KO neurons were evaluated, again eliminating the drugs that affected control neurons (see FIG. 5F-G, and FIG. 6C-D).

[3] = system: MECP2-KO cortical organoids; assay: RNA sequencing and gene ontology analysis of cortical organoids; settings: 1 μM for one month, two-month old organoids
Protocol: RNA-seq analyses. RNA-seq analyses were performed as described in Marchetto et al. (Nature 504:525-529 (2013)). Briefly, RNeasy Mini kit (Qiagen) isolated RNA for library preparation (Illumina TruSeq RNA Sample Preparation Kit; San Diego, Calif., USA) and sequencing (Illumina HiSeq2000, 50 bp paired-end reads, 50 million high-quality sequencing fragments per sample on average).
Gene ontology (GO) analysis. RNA-seq enrichment was with plugins WebGestalt and Cytoscape and considered only statistically significant categories (P<0.05). Genes evaluated for differential expression set the background for GO annotation and enrichment analysis.
Nefiracetam and PHA 543613 rescue network activity in MECP2-KO cortical organoids. The therapeutic efficacy of Nefiracetam and PHA 543613 was evaluated with cortical organoids, a complex, three-dimensional human neurodevelopmental model that closely recapitulates aspects of human fetal neurodevelopment. MECP2-KO and control cortical organoids were generated, as described above (see FIG. 9A, and FIG. 10A-B). One-month old cortical organoids were treated for another month with either Nefiracetam (1 μM) or PHA 543613 (1 μM), and experiments and analyses were performed using organoids at 2-3 months of age. […]

[4] = system: MECP2-mosaic (CTR/KO) neurospheres; assay: Calcium imaging of neurospheres; settings: for calcium transient amplitude: P=0.255
Protocol: Calcium imaging. Calcium imaging was performed as described in Chailangkarn et al. Briefly, PSC-derived neuronal networks were lentivirally transduced with a Syn::RFP reporter construct. Cultures were washed with Krebs HEPES buffer and incubated with Fluo-4AM (Molecular Probes/Invitrogen, Carlsbad, Calif., USA). A Hamamatsu ORCA-ER digital camera (Hamamatsu Photonics, Japan) with 488 nm filter on an Olympus IX81 inverted fluorescence confocal microscope (Olympus Optical, Tokyo, Japan) acquired 5000 frames at 28 Hz in a 256×256 pixel region (100× magnification). Images were acquired with MetaMorph7.7 (MDS Analytical Technologies, Sunnyvale, Calif., USA) and analyzed with ImageJ and Matlab7.2 (Mathworks, Natick, Mass., USA). Syn::RFP+ neurons were selected following tetrodotoxin blockade of calcium transients. A 95th-percentile threshold of amplitude for calcium spikes was set for event detection; signal amplitude is presented as fluorescence change (ΔF/F) following background subtraction.
Nefiracetam and PHA 543613 increase activity in MECP2-mosaic neurospheres. Because MECP2 resides on the X chromosome, random X-inactivation in females can produce a genetic pattern of mosaicism, with consequent phenotypic gradation, in which some cells express the normal allele while others are mutant. Therefore, as the next stage to evaluate the two drug candidates, a neurosphere model of MECP2 mosaicism was developed to mimic the female RTT brain by combining different proportions of control and MECP2-KO NPCs (see FIG. 7A-C). […] Calcium transient frequency in MECP2-mosaic neurospheres was increased by treatment with Nefiracetam in isolation (1 μM, P<0.05) and when combined with PHA 543613 (10 μM, P<0.001; FIG. 7H), but calcium transient amplitude was unaffected by either compound (P=0.255; FIG. 7I). To investigate the impact of the drug treatments on the electrophysiological properties of the MECP2-mosaic model, neurospheres treated with 1 μM Nefiracetam, 1 μM PHA 543613, or both Nefiracetam and PHA 543613 were plated to perform MEA analysis. […]

[5] = system: MECP2-KO cortical organoids; assay: Nuclei size in cortical organoids; settings: vs KO untreated

Compound | spine density / neuronal spine-like protrusions [1] | effect on controls [2] | expression of genes in pathways relevant to synaptic function [3] | calcium transient frequency ([4]; 1 μM, in isolation, P<0.05 vs CTR/KO untreated) | calcium transient amplitude [4] | nuclei size in cortical organoids [5]
Cc1cccc(C)c1NC(=O)CN1CCCC1=O [Nefiracetam, nefiracetam] | rescued or partially rescued | leaving controls unaffected | promoted expression; also recorded: upregulated genetic expression | increased | unaffected | did not rescue
O=C(N[C@H]1CN2CCC1CC2)c1cc2ccoc2cn1 [PHA 543613, N-[(3R)-1-azabicyclo[2.2.2]oct-3-yl]furo[2,3-c]pyridine-5-carboxamide] | rescued or partially rescued | leaving controls unaffected | promoted expression; also recorded: upregulated expression |  | unaffected | did not rescue
